According to patent publication US20160309717A1, “Compounds with Nematicidal Activity” (BAYER CROPSCIENCE AKTIENGESELLSCHAFT, priority 2013, published 2016):

What was measured:
[1] = Measurement of log P values by HPLC on reversed phase columns (EEC directive 79/831 Annex V.A8); format: physicochemical; conditions: for LogP [b] / chromatographic logP: LC-MS at pH 2.7, 0.1% formic acid in water / acetonitrile; for LogP [c]: LC-MS at pH 7.8, 0.001 molar ammonium hydrogen carbonate in water / acetonitrile; for chromatographic logP: reversed phase HPLC column, read-out: LogP [b]
Experimental: Measurement of Log P-Values:
Measurement of log P values was performed according EEC directive 79/831 Annex V.A8 by HPLC (High Performance Liquid Chromatography) on reversed phase columns with the following methods:
^[a] Measurement was done at pH 2.3 with 0.1% phosphoric acid and acetonitrile as eluent with a linear gradient from 10% acetonitrile to 95% acetonitrile.
^[b]measurement of LC-MS was done at pH 2.7 with 0.1% formic acid in water and with acetonitrile (contains 0.1% formic acid) as eluent with a linear gradient from 10% acetonitrile to 95% acetonitrile.
^[c] Measurement with LC-MS was done at pH 7.8 with 0.001 molar ammonium hydrogen carbonate solution in water as eluent with a linear gradient from 10% acetonitrile to 95% acetonitrile.
Calibration was done with not branched alkan2-ones (with 3 to 16 carbon atoms) with known log P-values (measurement of log P values using retention times with linear interpolation between successive alkanones). Lambda-maX-values were determined using UV-spectra from 200 nm to 400 nm and the peak values of the chromatographic signals.

Meloidogyne incognita = Meloidogyne incognita test, gall formation on salad seedlings in sand; format: in vivo; conditions: application rate 20 ppm; after 14 days; 100% = no galls found
Experimental: Solvent: 125.0 Parts by Weight of Acetone
To produce a suitable preparation of active compound, 1 part by weight of active compound is mixed with the stated amount of solvent, and the concentrate is diluted with water to the desired concentration.
Vessels are filled with sand, a solution of the active ingredient, a suspension containing eggs and larvae of the southern root-knot nematode (Meloidogyne incognita) and salad seeds. The salad seeds germinate and the seedlings grow. Galls develop in the roots.
After 14 days the nematicidal activity is determined on the basis of the percentage of gall formation. 100% means no galls were found and 0% means the number of galls found on the roots of the treated plants was equal to that in untreated control plants.

Haemonchus contortus = experiment: microbe, parasite or virus in culture; conditions: 120 h, read-out: activity (percentage of larval mortality)
Experimental: (§1) Solvent: Dimethyl Sulfoxide
(§2) To produce a suitable preparation of active compound, 10 mg of active compound are dissolved in 0.5 ml solvent, and the concentrate is diluted with “Ringer's solution” to the desired concentration.
Approximately 40 larvae of the red stomach worm (Haemonchus contortus) are transferred into a test tube containing compound solution.
After 5 days percentage of larval mortality are recorded. 100% efficacy means all larvae are killed, 0% efficacy means no larvae are killed.

Cooperia curticei = Cooperia curticei test (COOPCU), larval mortality
Experimental: as §1, §2
Approximately 40 nematode larvae (Cooperia curticei) are transferred into a test tube containing the compound solution.
After 5 days percentage of larval mortality is recorded. 100% efficacy means all larvae are killed; 0% efficacy means no larvae are killed.

SMILES	LogP [b] [1]	LogP [c] [1]	other results
O=C(NCC1(c2cccc(Cl)n2)CC1)c1cccnc1C(F)(F)F [Example 1]	2,42	2,41	
O=C(NCC1(c2cccc(Cl)n2)CC1)c1c(F)cccc1F [Example 2]	2,63	2,62	
O=C(NCC1(c2cccc(Cl)n2)CC1)c1ccccc1I [Example 3]	2,98	2,96	
O=C(NCC1(c2cccc(Cl)n2)CC1)c1ccccc1C(F)(F)F [Example 4]	3	2,99	
O=C(NCC1(c2cccc(Cl)n2)CC1)c1cccnc1Cl [Example 5]	^[b]2,11 ^[c]2,11	^[b]2,11 ^[c]2,11	
Cn1cc(C(=O)NCC2(c3cccc(Cl)n3)CC2)c(C(F)F)n1 [Example 6]	2,25	2,24	
O=C(NCC1(c2ccc(Br)cn2)CC1)c1ccccc1C(F)(F)F [Example 7]	^[b]3,1 ^[c]3,1	^[b]3,1 ^[c]3,1	
O=C(NCC1(c2ccc(Br)cn2)CC1)c1ccccc1I [Example 8]	3,1	3,09	
O=C(NCC1(c2ccc(Br)cn2)CC1)c1c(F)cccc1F [Example 9]	^[b]2,71 ^[c]2,71	^[b]2,71 ^[c]2,71	
O=C(NCC1(c2ccc(Br)cn2)CC1)c1cccnc1C(F)(F)F [Example 10]	2,51	2,5	nematicidal activity on the basis of the percentage of gall formation (Meloidogyne incognita): 90%
O=C(NCC1(c2ccc(Br)cn2)CC1)c1cccnc1Cl [Example 11]	2,17	2,18	
Cn1cc(C(=O)NCC2(c3ccc(Br)cn3)CC2)c(C(F)F)n1 [Example 12]	2,31	2,33	
Cn1cc(C(=O)NCC2(c3ncc(C(F)(F)F)cc3Cl)CC2)c(C(F)F)n1 [Example 13, N-[[1-[3-chloro-5-(trifluoromethyl)-2-pyridyl]cyclopropyl]methyl]-3-(difluoromethyl)-1-methyl-pyrazole-4-carboxamide]			mortality at 20 ppm (Haemonchus contortus): 80%; chromatographic logP [1]: 2.63; nematicidal activity on the basis of the percentage of gall formation (Meloidogyne incognita): 100%; mortality at 20 ppm (Cooperia curticei; Cooperia curticei, 120 h, read-out: activity (percentage of larval mortality)): 100%
O=C(NCC1(c2ncc(Br)cc2Cl)CC1)c1cccnc1C(F)(F)F [Example 14, N-{[1-(5-bromo-3-chloropyridin-2-yl)cyclopropyl]methyl}-2-(trifluoromethyl)nicotinamide]			chromatographic logP [1]: 2.88
O=C(NCC1(c2ccc(Cl)cn2)CC1)c1ccccc1C(F)(F)F [Example 15]	2,91	2,96	nematicidal activity on the basis of the percentage of gall formation (Meloidogyne incognita): 70%; activity (percentage of larval mortality) (Cooperia curticei; application rate 20 ppm, after 5 days, 100% = all larvae killed): 90%
